Assay results: US11246866B2, “Solid pharmaceutical compositions for treating HCV” (AbbVie Inc., priority 2015, dated 2022)

Experiment: Single-dose crossover bioavailability study of Compound 1/Compound 2 mini-tablets
Type: in vivo, human
Settings: for t1/2: Compound 1, fasting, harmonic mean, N = 14; for effect of administration with food on bioavailability: co-formulated mini-tablets, solid dispersion form, with food vs fasting
Method: In comparison, when administered with food, the mini-tablets provided an AUC that was only 5% lower than that provided by the regular tablets. […] All of the reference AUCs of the regular tablets were measured under fasting conditions. 14 subjects were enrolled in this study and dosed with co-formulated Compound 1/Compound 2 in mini-tablets. One subject spilled 4 mini-tablets (out of 100-150 total mini-tablets) during dosing of Period 2 (Regimen G) and was not excluded from the analysis. The mini-tablets were prepared according to a process similar to that described in Example 2. [table] [table]

t1/2 (Regimen F: mini-tablets 200 mg/120 mg) [h]	t1/2 (Regimen J: two 100 mg Compound 1 tablets and three 40 mg Compound 2 tablets) [h]	effect of administration with food on bioavailability	AUC lower than that provided by regular tablets (mini-tablets containing 200 mg Compound 1, with food, vs two regular tablets under fasting conditions) [%]	AUC lower than that provided by regular tablets (mini-tablets containing 200 mg Compound 1, without food, vs two regular tablets (same amount, same solid dispersion) under fasting conditions) [%]	AUC higher than that provided by regular tablets (mini-tablets containing 120 mg Compound 2, with food, vs three regular tablets under fasting conditions) [%]	AUC lower than that provided by regular tablets (mini-tablets containing 120 mg Compound 2, without food, vs three regular tablets under fasting conditions) [%]	SMILES
5.61	5.93	significantly increase	5	41			CC(C)(C)[C@@H]1NC(=O)O[C@@H]2CCC[C@H]2OC/C=C/C(F)(F)c2nc3ccccc3nc2O[C@@H]2C[C@@H](C(=O)N[C@]3(C(=O)NS(=O)(=O)C4(C)CC4)C[C@H]3C(F)F)N(C2)C1=O [Compound 1]
		significantly increase			6	28	COC(=O)N[C@H](C(=O)N1CCC[C@H]1c1nc2cc([C@H]3CC[C@H](c4cc5nc([C@@H]6CCCN6C(=O)[C@@H](NC(=O)OC)[C@@H](C)OC)[nH]c5cc4F)N3c3cc(F)c(N4CCC(c5ccc(F)cc5)CC4)c(F)c3)c(F)cc2[nH]1)[C@@H](C)OC [Compound 2]
